Assay results as given in patent US20180155737A1, “METHOD FOR MODULATING PLANT ROOT ARCHITECTURE” (priority 2012, published 2018).
“Also recorded” adds a separate entry of the source. Square brackets hold non-standard residues; d marks the D form. Ends that are not written are not given here. Hyp = O=C(O)[C@@H]1C[C@@H](O)CN1

Key:
M. truncatula roots = assay: Exogenous application of synthetic RAR peptides to M. truncatula roots (lateral roots, CCP sites/bumps, root growth); assay type: in vivo, Medicago truncatula; details: for Periodic bump (CCP site) formation: synthetic peptide applied to roots
Experimental: Seeds of M. truncatula cv Jemalong genotype A17 wild-type and M. truncatula 2HA line carrying either GH3 promoter-GUS reporter fusion gene (GH3:GUS) were grown under standard conditions (Holmes P, Goffard N, Weiller G F, Rolfe B G, & Imin N (2008), “Transcriptional profiling of Medicago truncatula meristematic root cells”, BMC Plant Biol 8:21).
The RAR peptides were synthesized at the Biomolecular Resource Facility, The Australian National University. The 15 amino acid (aa) peptides corresponding to the conserved domains of MtRAR1 (AFQHypTTPGNSHypGVGH and […]ypGVGH, where Hyp indicates hydroxy proline residue) and M. hapla MhRAR2 (AFRHypTAPGHSHypGVGH) were synthesized and validated as previously described in Djordjevic M A. et al. (2011), “Border sequences of Medicago truncatula CLE36 are specifically cleaved by endoproteases common to the extracellular fluids of Medicago and soybean”. J Exp Bot 62(13):4649-4659. The root length of wild-type plants was measured four days after transfer to Fåhraeus-medium containing the synthetic peptide. For the hormone assays, A17 plants were grown on Fåhraeus-medium for 10 days before transferring to Fåhraeus-medium containing 10^−6 M of the respective phytohormones; 1-aminocyclopropant-1-carboxylic acid (ACC), 6-benzylaminopurine (BAP), gibberallic acid (GA), synthetic analog of strigolactone (GR24), methyljasmonate (MeJA) and 1-naphthaleneacetic acid (NAA).

[1] = tested on: M. truncatula root nodulation by S. meliloti; assay: Nodulation with S. meliloti of peptide-treated M. truncatula plants; assay type: in vivo, Medicago truncatula
Source text: The 3-weeks old transformed hairy-roots plants were first transferred to a modified Fahraeus media without […] and kanamycin to starve the plants of nitrogen for 4 days. Inoculation with Sinorhizobium meliloti was done as described in Saur I M, Oakes M, Djordjevic M A, & Imin N (2011), “Crosstalk between the nodulation signaling pathway and the autoregulation of modulation in Medicago truncatula”, New Phytol 190(4):[…].
(§1) (b) partial nitrate tolerance of nodule development induced by WSM1022 on MtRAR1 over-expressing plants. Three weeks old composite plants were inoculated and scored two weeks post inoculation. N≥30. student's t-test; *; P<0.05; **; P<0.01; ***; P<0.001. (e) Acetylene reduction assay. MtRAR1 treated (1 μM) and non treated wild-type plants grown in Fåhraeus medium were harvested at 2 week post inoculation by S. meliloti WSM1022. Nitrogenase activity was calculated from peak areas of samples relative to acetylene and ethylene standards to obtain nmoles ethylene/min. N≥3, student's t-test; *: P<0.05; **: P<0.01. Error bars indicate SE. (d) Inoculation of plants with performed CCPs led to root nodule formation at CCP sites at 25 mM KNO3. Arrow head: CCP sites: Arrows: nodules. […] Scale bar: 100 μm. Plants were grown at 20° C.
FIG. 32 M. truncatula plants were grown in 0.8% agar-containing plates supplemented with F media with or without MtRAR1 peptide. Five-day old seedlings were inoculated with S. meliloti strain WSM1022 and further grown for two mom weeks. MtRAR1 Domain 1: AFQ(P)TTPGNS(P)GVGH: MtRAR1 Domain 1 with G−>A transition: AFQ(P)TTPANS(P)GVGH. (P) is hydroxylproline and the altered amino acid is underlined.

Nitrogenase activity = assay: Acetylene reduction assay (nitrogenase activity) of plants inoculated with S. meliloti WSM1022; assay type: in vivo, Medicago truncatula; details: 1 μM peptide
Experimental: as §1

M. truncatula = assay: Lateral root formation of plants grown in magenta jars with peptide; assay type: in vivo, Medicago truncatula; details: 1 μM peptide, 5 mM KNO3, two weeks, P<0.05
Experimental: (§2) M. truncatula, M. sativa, Subterranean Clover Cultivar Woogenellup and white clover (Trifolium repens) plants were grown in 0.4% agar-containing magenta jars supplemented with F media with or without peptides for two weeks. The media contained 5 mM KNO3. MtRAR1 peptide: FQ(P)TTPGNS(P)GVGH where (P) is hydroxyproline. Students' t-test *: P<0.05; **; P<0.01; ***: P<0.001; N>12. Error bars represent SE.
(§3) To further validate and exemplify the RAR technology, we have examined RAR peptide addition of roots of various plant species.

Lucerne (M. sativa) = assay: as above; assay type: in vivo; details: 1 μM peptide
Experimental: as §2
The plants were grown in 0.4% agar-containing magenta jars supplemented with F media with or without peptides for two weeks. The medium contained 5 mM KNO3. MtRAR1 peptide: FQ(P)TTPGNS(P)GVGH where (P) is hydroxyproline.
as §3

[2] = tested on: Subterranean Clover Cultivar Woogenellup; assay: as above; assay type: in vivo; details: 1 μM peptide
Experimental: as §2
The plants were grows in 0.4% agar-containing magenta jars supplemented with F media with or without peptides for two weeks. The media contained 5 mM KNO3. MtRAR1 peptide: FQ(P)TTPGNS(P)GVGH where (P) is hydroxyproline.
as §3

[3] = tested on: white clover (Trifolium repens); assay: as above; assay type: in vivo; details: 1 μM peptide
Experimental: as §2
The plants were grown in 0.4% agar-containing magenta jars supplemented with F medium with on without peptides for two weeks. The media contained 5 mM KNO3. MtRAR1 peptide: […] where (P) is hydroxyproline.
as §3

[4] = tested on: microtom tomato seedlings; assay: Plate assay, lateral root formation on microtom tomato seedlings; assay type: in vivo; details: 1 μM peptide
Experimental: The plants were grown so 0.8% agar-containing plates supplemented with F media with or without peptides for two weeks. The media contained 5 mM KNO3. MtRAR1 peptide: […] where (P) is hydroxyproline. Students' t-test, **: P<0.01; N>12. Error bars represent SE.
The plants were grows in 0.8% agar-containing plates supplemented with F media with or without peptides for two weeks. The medium contained 5 mM KNO3. MtRAR1 peptide: FQ(P)TTPGNS(P)GVGH where (P) is hydroxyproline.
Primary root length was not affected (FIG. 6).

[5] = tested on: Arabidopsis thaliana WT Col plants; assay: RAR bioactivity in Arabidopsis at different concentrations; assay type: in vivo
Experimental: To investigate the effect of different modifications on peptide bioactivity, several peptides were assayed for activity at different concentrations (Table 4), WT Col plants were grown vertically on ½ MS plates with 1% phytagel and containing varying concentration of RAR peptide ranging from 10^−6 M to 10^−12 M or no peptide. Plates were imaged at 12 days.

[6] = tested on: Arabidopsis thaliana WT Col plants; assay: Time course of RAR action in Arabidopsis over 12 days; assay type: in vivo; details: 1 μM
Experimental: To see how RAR was exerting its effect on PR growth and lateral root emergence and growth, a time course was performed over 12 days, WT Col plants were grown vertically on ½ MS with 1% phytagel and 1 μM RAR6 hyP or no peptide, with 16 hr days at 22° C. Plates were scanned every day for 12 days.

[7] = tested on: Arabidopsis thaliana WT Col plants; assay: Rescue: transfer of Arabidopsis plants between RAR and no RAR plates; assay type: in vivo
Experimental: To investigate whether the effect of RAR peptide addition could be released, WT Col plants were grown vertically for 6 days on […] plates with 1% phytagel. Plants were transferred from plates containing no RAR or 1 μM RAR6 hyP peptide (pre-treatment) to plates containing no RAR or 1 μM RAR6 hyP peptide as specified where they were left to grow for a further 6 days before being analysed.

rice seedlings = assay: Liquid culture (half strength MS), root formation of rice seedlings; assay type: in vivo; details: 1 μM peptide
Experimental: The plants were grown in liquid media containing half strength MS media with or without peptides for two weeks. Monocot RAR peptide: DTRATDFGHS(P)GAGH where (P) is hydroxyproline. Students' t-test, *: P<0.05; N>6. Error bars represent SE.
The plants were grown in liquid media containing half strength MS media with or without peptides for two weeks. Monocot RAR peptide: DTRATDPGHS(P)GAGH where (P) is hydroxyproline:
Primary root length was also affected (FIG. 23).

soybean seedlings = assay: Liquid culture, root formation of soybean seedlings; assay type: in vivo; details: 1 μM peptide
Experimental: The plants were grown in liquid supplemented with F medium with or without peptides for two weeks. The medium contained 5 mM KNO3. GmRAR peptide: NFR(P)TAPGHS(P)GVGH where (P) is hydroxyproline. Students' t-test, **; P<0.01; N>6. Error bars represent SE.
The plants were grown in liquid supplemented with F medium with or without peptides for two weeks. The media contained 5 mM KNO3. GmRAR peptide: […] where (P) is hydroxyproline.
Primary root length was also affected (FIG. 21).

[8] = range tested 10^−6 M to 10^−12 M, 12 days

Substance: AFQ(P)TTPANS(P)GVGH [MtRAR1 Domain 1 with G−>A transition]
- Inhibition of lateral root emergence (structure activity relationship of peptide variants) (M. truncatula roots; compared with MtRAR1 peptide): greatly attenuated
- Nodule numbers ([1]; 1 μM peptide, 5 mM and 25 mM KNO3, trend = significant increase as with MtRAR1 over-expression): non-functional

Substance: AFQ[Hyp]TTPGNS[Hyp]GVGH [MtRAR1 peptide]
- Main root growth (M. truncatula roots; 10^−6 M peptide): significantly inhibited
- Lateral root formation (M. truncatula roots; A17 plants, F medium containing 25 mM KNO3, 10^−6 M peptide): significantly reduced
- Concentration for dose-dependent inhibition of lateral root emergence (M. truncatula roots; in vivo): greater than 10^−7 M
- Periodic bump (CCP site) formation (M. truncatula roots): Maximum CCP site generation; also recorded: Periodic bumps
- Numbers of pink functional nodules ([1]; 1 μM peptide, 5 mM and 25 mM KNO3, compared to controls): significantly higher numbers
- Nodule development (nodule sections) ([1]; 0.5 mM or 25 mM KNO3, three weeks, versus untreated plants): accelerated nodule development
- Nodule size ([1]; all across the nitrate regimen, versus no peptide or G->A peptide): much larger
- Increase in nitrogenase activity (Nitrogenase activity; 0 mM KNO3, 2 week post inoculation): 35%
- Increase in nitrogenase activity (Nitrogenase activity; 5 mM KNO3, 2 week post inoculation): 200%
- Lateral root emergence (M. truncatula): significantly inhibited
- CCP (bump) site formation (Lucerne (M. sativa)): formed CCP
- Lateral root emergence (Lucerne (M. sativa); 5 mM KNO3, two weeks, P<0.05): significantly inhibited
- CCP (bump) site formation [2]: formed CCP
- Lateral root emergence ([2]; 5 mM KNO3, two weeks, P<0.05): significantly inhibited
- CCP (bump) site formation [3]: formed CCP
- Lateral root emergence ([3]; 5 mM KNO3, two weeks, P<0.05): significantly inhibited
- Primary root length [4]: not affected
- Number of lateral roots ([4]; 5 mM KNO3, two weeks, P<0.05): reduction

Substance: AFR[Hyp]TAPGHS[Hyp]GVGH [MhRAR2]
- Periodic bump (CCP site) formation (M. truncatula roots): Maximum CCP site generation; also recorded: Periodic bumps

Substance: D F R hyP T (p-T) P G H S hyP G I G H [RAR6 phos]
- Activity relative to the non-phosphorylated RAR6 peptide ([5]; in vivo): 1000 ×
- Concentration range at which the peptide is active (in words) [5, 8]: picomolar

Substance: D F R hyP T T P G H S hyP G I G H [RAR6 hyP]
- PR length, treated versus untreated ([6]; 2 days post imbibing): no significant difference
- PR length, treated versus untreated ([6]; from day 3 onwards): significantly shorter
- Number of lateral roots, treated versus untreated ([6]; scanned every day for 12 days): not significantly different until day 8
- Primary root length of plants pre-treated with RAR and transferred to no RAR versus plants exposed to RAR continuously ([7]; 1 μM, 6 + 6 days, p<0.05): significantly higher
- Number of lateral roots after transfer to no RAR, by pre-treatment ([7]; 6 days pre-treatment with 1 μM or no RAR, then 6 days no RAR): the same

Substance: D F V P T S P G N S P G V G H (DFVPTSPGNSPGVGH) [RAR5 no HyP]
- Concentration at which the peptide is active [5, 8]: 10^−9 M

Substance: D F V hyP T (p-S) P G N S hyP G V G H [RAR5 phos]
- Effect of phosphorylation on activity ([5]; Arabidopsis RAR5): enhances activity

Substance: D F V hyP T S P G N S hyP G V G H [RAR5 hyP]
- Concentration at which the peptide is active [5, 8]: 10^−8 M

Substance: DTRATDPGHS(P)GAGH [Monocot RAR peptide]
- Primary root length (rice seedlings): affected
- Number of roots (rice seedlings; liquid half strength MS, two weeks, P<0.05): reduction

Substance: NFR(P)TAPGHS(P)GVGH [GmRAR peptide]
- Primary root length (soybean seedlings): affected
- Number of roots (soybean seedlings; liquid F medium, 5 mM KNO3, two weeks, P<0.05): reduction
